Measurements: patent US10125095B2, “Abscisic acid derivative” (NATIONAL UNIVERSITY CORPORATION SHIZUOKA UNIVERSITY, priority 2014, dated 2018)

Assays:
[1] = test system: seeds of thale cress (Arabidopsis thaliana, Col-0); test: Thale cress seed germination test; format: in vivo
Experimental: Seeds of thale cress (Arabidopsis thaliana, Col-0) were immersed in 500 μL of an aqueous solution of 70% ethanol for 30 minutes, subsequently in 500 μL of a 100% ethanol solution for 1 minute, washed five times in 1 mL of distilled water, then immersed in distilled water and, in a dark place, vernalized at 4° C. for 3 days. A solution of the sample in methanol was put in a 1.5 mL-microtube, and methanol was removed therefrom under reduced pressure. An aqueous solution of 0.5% agar (containing ½ MS medium inorganic salts) at 70° C. was added thereto and stirred, and subsequently the obtained mixture was placed in a 96-well plate to prepare the medium containing the sample. All samples were prepared so as to have a concentration of 3 μM of the compound in Examples 1 to 9 and Comparative Example 1. Further, when ABA is applied, the ABA concentration was adjusted to 0.3 μM. 20 to 30 vernalized seeds of thale cress were planted in each well and cultured at 22° C. under continuous light to monitor the number of seeds germinated over time. The germination rate was calculated by the following formula (1). Note that those cultured in medium prepared using methanol in the same manner were used as controls. […] Germination rate (%)=Number of seeds germinated/Number of seeds planted×100 (1)
The same test was carried out as in Test Example 1 with the concentrations of the compound of Example 1 for treatment varying from 0.3 μM to 30 μM.
Similarly, the same test was carried out with the concentrations of the compound of Example 2 for treatment varying from 0.3 μM to 30 μM.
The same test was carried out as in Test Example 2 with the concentrations of the compounds for treatment varying from 0.3 μM to 3 μM to compare the recovery effects on seed germination rate of the compound of Example 1 and the compound of Comparative Example 1.

[2] = target: T1, PYR1 (Arabidopsis thaliana, UniProt O49686); test: Protein dephosphorylation enzyme activity test, PYR1; format: biochemical, thale cress; conditions: control = 100%
T1 construct: 6xHis (N); made in house; host or cells: Escherichia coli BL21-codonplus(DE3)-RIPL (PYL); BL21(DE3)pLysS (HAB1)
T1 sequence (O49686 1-191): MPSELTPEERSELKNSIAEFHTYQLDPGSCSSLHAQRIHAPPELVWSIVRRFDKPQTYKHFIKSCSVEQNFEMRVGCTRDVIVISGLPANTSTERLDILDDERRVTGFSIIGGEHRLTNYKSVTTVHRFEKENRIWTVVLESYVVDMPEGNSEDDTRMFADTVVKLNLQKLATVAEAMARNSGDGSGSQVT
Experimental: (§1) A plasmid (pGex-2T-GST-HAB1 or pET28-6×His-PYL) encoded with PYR/PYL/RCAR proteins (PYL, abscisic acid receptor) or protein dephosphorylation enzyme HAB1 of thale cress was transformed to Escherichia coli (HAB1:BL21(DE3)pLysS, PYL:BL21-codonplus(DE3)-RIPL). Isopropyl-β-thiogalactopyranoside was added to the culture broth, which had been subjected to pre-culture (30° C., 180 rpm, 15 hours) and main culture (30° C., 180 rpm, 4 hours), and the protein-expressed (16° C., 150 rpm, 18 hours) crude enzyme solution was purified using FPLC thereby preparing the recombined PYL (PYR1, PYL1-6, PYL8-10) and HAB1. β-Mercaptoethanol, a manganese chloride aqueous solution, HAB1, PYL, a solution of the sample in dimethylsulfoxide and ultrapure water were sequentially added to a 96-well plate, allowed to stand at 22° C. for 30 minutes. Subsequently p-nitrophenylphosphate, which is the artificial substrate of HAB1, was added thereto to start the reaction, and the plate was placed in a microplate reader (TECAN, Infinite™ N200 NanoQuant). The absorbance at 405 nm due to p-nitrophenol, which is the hydrolysate of p-nitrophenylphosphate, was measured 3 minutes later from the reaction initiation, and HAB1 activity was calculated by the following formula (2). Note that the fraction to which only dimethylsulfoxide was added was considered to be the control and the activity thereof was defined as 100%. […] HAB1 specific activity (%)=Absorbance when sample was added/Absorbance of control×100 (2)

[3] = target: T2, PYL1 (Arabidopsis thaliana, UniProt Q8VZS8); test: Protein dephosphorylation enzyme activity test, PYL1; format: biochemical, thale cress; conditions: control = 100%
T2 construct: 6xHis (N); made in house; host or cells: Escherichia coli BL21-codonplus(DE3)-RIPL (PYL); BL21(DE3)pLysS (HAB1)
T2 sequence (Q8VZS8 1-221): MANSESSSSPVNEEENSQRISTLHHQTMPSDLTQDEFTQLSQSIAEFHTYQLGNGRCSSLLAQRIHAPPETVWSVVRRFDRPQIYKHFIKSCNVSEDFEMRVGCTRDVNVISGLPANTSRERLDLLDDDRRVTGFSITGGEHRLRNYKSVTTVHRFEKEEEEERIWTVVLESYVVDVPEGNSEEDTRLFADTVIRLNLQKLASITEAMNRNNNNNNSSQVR
Experimental: as §1

[4] = target: T3, recombined PYL5 (Arabidopsis thaliana, UniProt Q9FLB1); test: Bonding affinity measurement using an isothermal titration calorimeter; format: binding, thale cress; conditions: ITC, 20° C., sodium phosphate buffer
T3 construct: 6xHis (N); made in house; host or cells: Escherichia coli BL21-codonplus(DE3)-RIPL
T3 sequence (Q9FLB1 1-203): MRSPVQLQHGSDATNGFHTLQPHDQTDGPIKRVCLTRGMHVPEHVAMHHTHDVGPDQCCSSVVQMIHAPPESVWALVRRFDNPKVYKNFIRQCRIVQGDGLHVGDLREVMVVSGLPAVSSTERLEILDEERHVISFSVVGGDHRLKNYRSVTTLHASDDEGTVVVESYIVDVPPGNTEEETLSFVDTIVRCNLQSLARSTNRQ
Experimental: A sodium phosphate buffer solution of a recombined PYL5 was prepared in the same procedure as in Test Example 5, and put in a reaction cell of an isothermal titration calorimeter (GE Healthcare, MicroCal iTC200), and a sodium phosphate buffer solution of the compound of Example 1 was put in the syringe. Then, the calorimeter was set to 20° C. and the measurement was carded out. The same measurement as above was also carried out for the compounds of Examples 7 to 9.

[5] = 3 μM compound co-applied with 0.3 μM ABA

| Compound | HAB1 Specific activity (%) PYR1 ([2]; sample alone) [%] | HAB1 Specific activity (%) PYL1 ([3]; sample alone) [%] | Kd [4] [nM] | ΔG [4] [kcal/mol] | ΔH [4] [kcal/mol] | −TΔS [4] [kcal/mol] | Germination rate (%) 24 Hours later [1, 5] [%] | Germination rate (%) 36 Hours later [1, 5] [%] | Germination rate (%) 48 Hours later [1, 5] [%] | Germination rate (%) 60 Hours later [1, 5] [%] | Germination rate (%) 24 Hours later ([1]; compound alone, 3 μM) [%] | Germination rate (%) 36 Hours later ([1]; compound alone, 3 μM) [%] | Germination rate (%) 48 Hours later ([1]; compound alone, 3 μM) [%] | Germination rate (%) 60 Hours later ([1]; compound alone, 3 μM) [%] | HAB1 Specific activity (%) PYR1 ([2]; ABA + compound) [%] | HAB1 Specific activity (%) PYL1 ([3]; ABA + compound) [%] | other results |
| --- | --- | --- | --- | --- | --- | --- | --- | --- | --- | --- | --- | --- | --- | --- | --- | --- | --- |
| CC1=CC(=O)CC(C)(C)[C@@]1(O)/C=C/C(C)=C\C(=O)O [ABA, abscisic acid] | 18.6 | 18.6 | 880 ± 110 | -8.1 ± 0.1 | -7.8 ± 0.1 | -0.3 |  |  |  |  |  |  |  |  |  |  | Germination rate (%) 24 Hours later ([1]; ABA alone, 0.3 μM): 0%; Germination rate (%) 36 Hours later ([1]; ABA alone, 0.3 μM): 0%; Germination rate (%) 48 Hours later ([1]; ABA alone, 0.3 μM): 16.2%; Germination rate (%) 60 Hours later ([1]; ABA alone, 0.3 μM): 32.6% |
| CC1=C[C@@H](OCC#Cc2ccccc2)CC(C)(C)[C@@]1(O)/C=C/C(C)=C\C(=O)O [Example 1, (2Z,4E)-5-((1S,4S)-1-hydroxy-2,6,6-trimethyl-4-((3-phenylprop-2-yn-1-yl)oxy)cyclohex-2-en-1-yl)-3-methylpenta-2,4-dienoic acid] | 99.6 | 98.1 | 70 ± 20 | -9.6 ± 0.1 | -7.9 ± 0.1 | -1.7 | 0 | 79 | 100 | 100 | 0 | 86 | 100 | 100 | 49 | 55.6 | Recovery of seed germination rate decreased by ABA ([1]; compound 0.3 μM to 30 μM co-applied with ABA): seed germination rates decreased by ABA are recovered; Recovery effect on seed germination rate, comparison ([1]; compounds 0.3 μM to 3 μM, co-applied with ABA): excels in the recovery effect on seed germination rate more than the compound of Comparative Example 1 |
| CC1=C[C@@H](OCC#Cc2ccc(C)cc2)CC(C)(C)[C@@]1(O)/C=C/C(C)=C\C(=O)O [Example 7] | 95.7 | 136 | 70 ± 20 | -9.6 ± 0.2 | -5.5 ± 0.1 | -4.2 | 0 | 76 | 100 | 100 | 0 | 86 | 100 | 100 | 62.6 | 87.7 |  |
